This is an account of results in patent US20250223552A1, “METHOD FOR PREPARING T CELLS FOR ADOPTIVE T CELL THERAPY” (ST. JUDE CHILDREN'S RESEARCH HOSPITAL, INC., priority 2022, published 2025).

The subject of assay [1] is OT-I CD8^+ T cells. Nature of the assay: OT-I CD8+ T cells activated with anti-CD3/CD28 in presence of Arid1a inhibitor, CD62L by flow cytometry. As to conditions: inhibitor 1 μM during 48 hours activation, drug removed, additional 2 days culture with IL-2; FIG. 1. The format is cell-based, mouse. The source says: Data are compiled from at least two independent experiments. Data are shown as mean±s.e.m. *p<0.05; two-tailed unpaired Student's t-test.
Flow Cytometry. Antibodies from Biolegend included APC/Cy7 anti-human CD8α, BV785 anti-human CD45RA, PE anti-human CD62L, APC anti-human CD27, PE/Cy7 anti-human CCR7, BV421 anti-human CD95, BV785 anti-mouse/human CD44, BV510 anti-mouse KLRG1, KIRAVIA Blue 520 anti-mouse CD62L, BV605 anti-mouse CD127, BV650 anti-mouse CX3CR1, APC anti-mouse CD8α, ALEXA FLUOR® 700 fluorescent dye anti-mouse CD45.2, APC anti-mouse CD98; PE anti-mouse CXCR3 (eBioscience); and BUV395 anti-human CD3, BUV805 anti-human CD45RO; BUV496 anti-mouse CD45.1, BUV805 anti-mouse CD8α were acquired from BD Biosciences. For surface markers, cells were stained for 30 minutes at 4° C. in PBS+2% (w/v) bovine serum albumin (BSA). […] Samples were acquired on CYTEK® Aurora or BD LSRII flow cytometer and analyzed with FlowJo software.
Effective adoptive T cell therapy for cancer is critically dependent upon the use of T cells with long-term memory potential (Lugli et al. (2020) Trends Immunol. 41:17-28; Gattinoni et al. (2012) Nat. Rev. Cancer 12:671-684; Klebanoff et al. (2005) Proc. Natl. Acad. Sci. USA 102:9571-9576; Hurton et al. (2016) Proc. Natl. Acad. Sci. USA 113: E7788-E7797). Therefore, it was determined whether manipulation of CBAF can improve anti-tumor therapy. […]

In assay [2] the test system is B7-H3-expressing GL261 tumor cells. The assay is described as follows: Repeat stimulation assay of B7-H3 CAR-T cells with GL261 tumor cells. The format is cell-based, murine. As to conditions: CAR-T:tumor 3:1, counted every 3 days, FIG. 4. The protocol:
T cells were transduced with B7-H3 CAR or a control CAR containing only the single-chain variable fragment (scFv) and transmembrane domain (B7-H3 STOP CAR) and co-cultured with GL261 tumor cells at the ratio of 3:1. Cells numbers were assessed every 3 days. Data are compiled from at least two independent experiments. Data are shown as mean±s.e.m. ***p<0.001; two-way ANOVA.
(§1) Repeat Stimulation Assay. For repeat stimulation assays, 3×10^5 tumor cells (GL261, F420) were plated in a 24-well plate and allowed to adhere for 4-6 hours at 37° C., CAR-T cells (1×10^6) were then added to the wells containing tumor cells without any exogenous cytokines (tumor: CAR-T cell ratio=1:3). After 3 days of co-culture, CAR-T cells were lifted by gentle pipetting to avoid disrupting adherent tumor cells, and the number of T cells was determined using a hemocytometer. Stimulations and cell counts were repeated every 3 days with the same tumor cells.
(§2) Currently the most widely used adoptive T cell therapy employs the use of CARs. However, the use of CAR-T cells for the treatment of solid tumors remains challenging (Lim & June whether CAR-T cell (2017) Cell 168:724-740). […] The ability of B7-H3 CAR-T cells to control the growth of F420 cells was then assessed in vivo.

The subject of assay [3] is B7-H3-expressing F420 tumor cells. Nature of the assay: Repeat stimulation assay of B7-H3 CAR-T cells with F420 tumor cells. As to conditions: CAR-T:tumor 3:1, counted every 3 days, FIG. 5. The format is cell-based, murine. The protocol:
T cells were transduced with B7-H3 CAR or a control CAR containing only the scFv and transmembrane domain (B7-H3 STOP CAR) and co-cultured with F420 tumor cells at the ratio of 3:1. Cells numbers were assessed every 3 days. Data are compiled from at least two independent experiments. Data are shown as mean±s.e.m. *p<0.05; two-way ANOVA.
as §1, §2

The test system of assay [4] is F420 tumor. Nature of the assay: F420 tumor-bearing mice treated with B7-H3 CAR-T cells pre-treated with Arid1a inhibitor. The format is in vivo. Here is the method:
Data are representative of two independent experiments. Data are shown as mean±s.e.m. *p<0.05, ***p<0.001; two-way ANOVA.
Data are representative of two independent experiments. Log-rank (Mantel-Cox) test was performed for comparing survival curves.
For CAR-T tumor models, the murine osteosarcoma cell line F420 was derived from singly floxed p53+/F-Col2.3 transgenic mice (Zhao et al. (2015) Oncogene 34:5069-5079); 0.5×10^6 F420 cells were injected subcutaneously into naïve mice. Seven days after tumor transplant, 5×10^6 B7-H3 CAR-T cells were transferred i.v. without lymphodepleting chemotherapy and tumor size was measured every two days.
Currently the most widely used adoptive T cell therapy employs the use of CARs. However, the use of CAR-T cells for the treatment of solid tumors remains challenging (Lim & June whether CAR-T cell (2017) Cell 168:724-740). To examine function is enhanced by acute Arid1a inhibition, a CAR targeting murine B7-H3 (Haydar et al. (2021) Neuro-Oncol. 23:999-1011) was used in two B7-H3-positive cell lines, murine osteosarcoma F420 (Zhao et al. (2015) Oncogene 34:5069-5079; Kenneth et al. (2021) Mol. Ther. 29:326-326) and glioma GL261 (Haydar et al. (2021) Neuro-Oncol. 23:999-1011). Murine T cells were activated for 2 days in the presence or absence of the Arid1a inhibitor, followed by retroviral transduction of the B7-H3 CAR to generate CAR-T cells. […] The ability of B7-H3 CAR-T cells to control the growth of F420 cells was then assessed in vivo.

The mark [5] stands for this setting: day 9 post-transfer, vs vehicle-treated CAR-T cells.

Take `CO[C@H]1CN(C)C(=O)c2cc(NC(=O)NC(C)C)ccc2OC[C@H](C)N(Cc2ccc(-c3ccccn3)cc2)C[C@@H]1C` [BRD-K98645985]: in assay [1], the “generation of cells with the TCM marker CD62L” value is “promoted the generation of cells with the TCM marker CD62L”. For the same compound, the “expansion of CAR-T cells on repeated stimulation” value in assay [2] and in assay [3] was “greater expansion” throughout. The “tumor control (F420 tumor growth)” value in assay [4] (B7-H3 CAR-T cells from transiently inhibitor-treated T cells vs untreated, FIG. 6) is on record as “markedly enhanced tumor control”. Moreover, the “survival of F420 tumor-bearing mice” value in assay [4] (B7-H3 CAR-T cells from transiently inhibitor-treated T cells vs untreated, FIG. 7) was “markedly enhanced”. In addition, in assay [4] (setting [5]), the “number of CAR-T cells among tumor infiltrating lymphocytes” value was “higher numbers”. Besides, the “proportion of CD62L^+CD44^+ cells among tumor infiltrating CAR-T cells” value in assay [4] (setting [5]) is reported as “higher proportion of CD62L^+CD44^+ cells”.
